The assay addresses T1, SARS-CoV-2 RdRp (RNA-dependent RNA polymerase, NSP12) (Severe acute respiratory syndrome coronavirus 2, UniProt P0DTD1).
T1 construct: gene rep
In words: microscale thermophoresis (MST). The format is binding.

The structures appear in SMILES notation.

In turn, `C[C@H]1C(=O)CC[C@]2(C)[C@@H]1CC[C@@]13CC[C@@H]([C@@H](O)[C@H]12)[C@]1(COC(C)(C)O1)C3` [compound 1, (4R,5S,8S,9S,10R,11S,12S,16S)-ent-11α-hydroxy-16α,17-acetonide-19-noratisan-3-one] registered an equilibrium dissociation constant (Kd) of 31.1 µM.

These data come from paper PMC11306077, “Diterpenoids target SARS-CoV-2 RdRp from the roots of Euphorbia fischeriana Steud” (Frontiers in Plant Science, 2024).
